Assay results published in US9062078B2, “Substituted 7-azabicyles and their use as orexin receptor modulators” (priority 2013, dated 2015).
Where two headings read alike, the source gives them in different places.

How the values were obtained:
human orexin 2 receptor = human orexin 2 receptor (Homo sapiens (Human), UniProt O43614); test: Human orexin 2 receptor radioligand binding (competitive, [3H]-EMPA, HEK293 cell preparations)
rat orexin 1 receptor = rat orexin 1 receptor (Rattus norvegicus, UniProt P56718); test: Rat orexin 1 receptor radioligand binding (competitive, [3H]-SB674042, HEK293 cell preparations)
[1] = rat orexin 1 receptor, [3H]-SB674042 competition binding, read-out: rOX1 Ki (nm)
[2] = human orexin 2 receptor, [3H]-EMPA competition binding, read-out: hOX2 Ki (nm)

Sequence of human orexin 2 receptor (O43614 whole entry): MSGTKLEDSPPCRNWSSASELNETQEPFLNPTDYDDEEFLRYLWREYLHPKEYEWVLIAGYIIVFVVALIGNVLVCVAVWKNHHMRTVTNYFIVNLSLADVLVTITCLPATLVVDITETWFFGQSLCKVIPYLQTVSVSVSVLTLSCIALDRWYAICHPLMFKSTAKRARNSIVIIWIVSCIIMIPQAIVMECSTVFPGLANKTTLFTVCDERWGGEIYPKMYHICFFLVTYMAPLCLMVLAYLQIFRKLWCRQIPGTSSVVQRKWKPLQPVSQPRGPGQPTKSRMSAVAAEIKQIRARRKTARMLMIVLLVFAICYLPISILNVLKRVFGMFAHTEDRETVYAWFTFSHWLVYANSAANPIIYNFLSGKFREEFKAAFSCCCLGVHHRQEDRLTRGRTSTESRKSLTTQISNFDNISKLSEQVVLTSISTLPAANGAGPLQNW

O=C(c1ccccc1-n1nccn1)N1C2CCC1C(Nc1ccc(C(F)(F)F)nn1)C2 (racemic) [Example 212, (±)-(2-(2H-1,2,3-triazol-2-yl)phenyl)(2-(6-(trifluoromethyl)pyridazin-3-yl)amino)-7-azabicyclo[2.2.1]heptan-7-yl)methanone]
Ki (human orexin 2 receptor; hOX2 Ki (nm)): 4.9 µM
Ki (rat orexin 1 receptor; [1]): 0.734 µM

COc1ccc(NC2CC3CCC2N3C(=O)c2ccccc2-n2nccn2)nc1 (racemic) [Example 213, (±)-(2-(2H-1,2,3-triazol-2-yl)phenyl)(2-((5-methoxypyridin-2-yl)amino)-7-azabicyclo[2.2.1]heptan-7-yl)methanone]
Ki (human orexin 2 receptor; [2]): 7.5 µM
Ki (rat orexin 1 receptor; [1]): 2.8 µM

Cc1ccc(NC2CC3CCC2N3C(=O)c2ccccc2-n2nccn2)nc1 (racemic) [Example 214, (±)-(2-(2H-1,2,3-triazol-2-yl)phenyl)(2-(((5-methylpyridin-2-yl)amino)-7-azabicyclo[2.2.1]heptan-7-yl)methanone]
Ki (human orexin 2 receptor; hOX2 Ki (nm)): 3.1 µM
Ki (rat orexin 1 receptor; rOX1 Ki (nm)): 0.5 µM

O=C(c1ccccc1-n1nccn1)N1C2CCC1C(Nc1ccccn1)C2 (racemic) [Example 215, (±)-(2-(2H-1,2,3-triazol-2-yl)phenyl)(2-(pyridin-2-ylamino)-7-azabicyclo[2.2.1]heptan-7-yl)methanone]
Ki (human orexin 2 receptor; [2]): 9 µM
Ki (rat orexin 1 receptor; [1]): 1.7 µM

COc1c(F)cccc1C(=O)N1C2CCC1C(Nc1ccc(Br)cn1)C2 (racemic) [Example 218, (±)-(2-((5-bromopyridin-2-yl)amino)-7-azabicyclo[2.2.1]heptan-7-yl)(3-fluoro-2-methoxyphenyl)methanone]
Ki (human orexin 2 receptor; [2]): 6.7 µM
Ki (rat orexin 1 receptor; rOX1 Ki (nm)): 2.7 µM

CCOc1ccc(C)nc1C(=O)N1C2CCC1C(Nc1ccc(Br)cn1)C2 (racemic) [Example 219, (±)-(2-((5-bromopyridin-2-yl)amino)-7-azabicyclo[2.2.1]heptan-7-yl)(3-ethoxy-6-methylpyridin-2-yl)methanone]
Ki (human orexin 2 receptor; [2]): 1.7 µM
Ki (rat orexin 1 receptor; [1]): 0.257 µM

COc1c(F)cccc1C(=O)N1C2CCC1C(Nc1ncc(C(F)(F)F)cn1)C2 (racemic) [Example 222, (±)-(3-fluoro-2-methoxyphenyl)(2-(5-(trifluoromethyl)pyrimidin-2-yl)amino)-7-azabicyclo[2.2.1]heptan-7-yl)methanone]
Ki (human orexin 2 receptor; [2]): > 10 µM
Ki (rat orexin 1 receptor; rOX1 Ki (nm)): 4.8 µM

Cc1ccc(-n2nccn2)c(C(=O)N2C3CCC2C(Nc2ncc(C(F)(F)F)cn2)C3)n1 (racemic) [Example 223, (±)-(6-methyl-3-(2H-1,2,3-triazol-2-yl)pyridin-2-yl)(2-((5-(trifluoromethyl)pyrimidin-2-yl)amino)-7-azabicyclo[2.2.1]heptan-7-yl)methanone]
Ki (human orexin 2 receptor; [2]): 4 µM
Ki (rat orexin 1 receptor; rOX1 Ki (nm)): 0.55 µM

Cc1ccc(-c2ncccn2)c(C(=O)N2C3CCC2C(Nc2ncc(C(F)(F)F)cn2)C3)n1 (racemic) [Example 225, (±)-(6-methyl-3-(pyrimidin-2-yl)pyridin-2-yl)(2-(5-(trifluoromethyl)pyrimidin-2-yl)amino)-7-azabicyclo[2.2.1]heptan-7-yl)methanone]
Ki (human orexin 2 receptor; [2]): 3.3 µM
Ki (rat orexin 1 receptor; [1]): 0.53 µM

COc1c(F)cccc1C(=O)N1C2CCC1C(Nc1ncc(C(F)(F)F)cn1)C2 (racemic) [Example 226, (±)-(3-fluoro-2-methoxyphenyl)(2-(5-(trifluoromethyl)pyrimidin-2-yl)amino)-7-azabicyclo[2.2.1]heptan-7-yl)methanone]
Ki (human orexin 2 receptor; [2]): > 10 µM
Ki (rat orexin 1 receptor; rOX1 Ki (nm)): > 10 µM

Cc1ccc(-n2nccn2)c(C(=O)N2C3CCC2C(Nc2ncc(C(F)(F)F)cn2)C3)n1 (racemic) [Example 228, (±)-(6-methyl-3-(2H-1,2,3-triazol-2-yl)pyridin-2-yl)(2-((5-(trifluoromethyl)pyrimidin-2-yl)amino)-7-azabicyclo[2.2.1]heptan-7-yl)methanone]
Ki (human orexin 2 receptor; [2]): > 10 µM
Ki (rat orexin 1 receptor; rOX1 Ki (nm)): > 10 µM

Cc1ccc(-n2nccn2)c(C(=O)N2C3CCC2C(Nc2cnc4ccccc4n2)C3)n1 (racemic) [Example 230, (±)-(6-methyl-3-(2H-1,2,3-triazol-2-yl)pyridin-2-yl)(2-(quinoxalin-2-ylamino)-7-azabicyclo[2.2.1]heptan-7-yl)methanone]
Ki (human orexin 2 receptor; hOX2 Ki (nm)): > 10 µM
Ki (rat orexin 1 receptor; rOX1 Ki (nm)): > 10 µM

COc1c(F)cccc1C(=O)N1C2CCC1C(Nc1ccc(F)cn1)C2 (racemic) [Example 237, (±)-(3-fluoro-2-methoxyphenyl)(2-(((5-fluoropyridin-2-yl)amino)-7-azabicyclo[2.2.1]heptan-7-yl)methanone]
Ki (human orexin 2 receptor; hOX2 Ki (nm)): > 10 µM
Ki (rat orexin 1 receptor; rOX1 Ki (nm)): > 10 µM

O=C(c1cccc(F)c1-c1ncccn1)N1C2CCC1C(Oc1ncc(C(F)(F)F)cn1)C2 (racemic) [Example 286, (±)-(3-fluoro-2-(pyrimidin-2-yl)phenyl)(2-((5-(trifluoromethyl)pyrimidin-2-yl)oxy)-7-azabicyclo[2.2.1]heptan-7-yl)methanone]
Ki (human orexin 2 receptor; [2]): > 10 µM
Ki (rat orexin 1 receptor; [1]): > 10 µM

Cc1ccc(-c2ncccn2)c(C(=O)N2[C@H]3CC[C@@H]2[C@@H](COc2ccccn2)C3)n1 (single isomer, unassigned) [Example 3B, (6-methyl-3-(pyrimidin-2-yl)pyridin-2-yl)((1R*,2S*,4S*)-2-((pyridin-2-yloxy)methyl)-7-azabicyclo[2.2.1]heptan-7-yl)methanone]
Ki (human orexin 2 receptor; hOX2 Ki (nm)): > 10 µM
Ki (rat orexin 1 receptor; rOX1 Ki (nm)): > 10 µM

COc1c(F)cccc1C(=O)N1C2CCC1C(Nc1cnc3ccccc3n1)C2 (single isomer, unassigned) [Example 206, (±)-(3-fluoro-2-methoxyphenyl)(2-(quinoxalin-2-ylamino)-7-azabicyclo[2.2.1]heptan-7-yl)methanone]
Ki (human orexin 2 receptor; [2]): 1.5 µM
Ki (rat orexin 1 receptor; [1]): 1.2 µM

CCOc1ccc(C)nc1C(=O)N1C2CCC1C(Nc1ncc(C(F)(F)F)cn1)C2 (single isomer, unassigned) [Example 224, (±)-(3-ethoxy-6-methylpyridin-2-yl)(2-(5-(trifluoromethyl)pyrimidin-2-yl)amino)-7-azabicyclo[2.2.1]heptan-7-yl)methanone]
Ki (human orexin 2 receptor; [2]): 7.4 µM
Ki (rat orexin 1 receptor; [1]): 2.5 µM

CCOc1ccc(C)nc1C(=O)N1C2CCC1C(Nc1ncc(C(F)(F)F)cn1)C2 (single isomer, unassigned) [Example 227, (±)-(3-ethoxy-6-methylpyridin-2-yl)(2-(5-(trifluoromethyl)pyrimidin-2-yl)amino)-7-azabicyclo[2.2.1]heptan-7-yl)methanone]
Ki (human orexin 2 receptor; [2]): > 10 µM
Ki (rat orexin 1 receptor; [1]): > 10 µM

CCOc1ccc(C)nc1C(=O)N1C2CCC1C(Nc1cnc3ccccc3n1)C2 (single isomer, unassigned) [Example 229, (±)-(3-ethoxy-6-methylpyridin-2-yl)(2-(quinoxalin-2-ylamino)-7-azabicyclo[2.2.1]heptan-7-yl)methanone]
Ki (human orexin 2 receptor; [2]): > 10 µM
Ki (rat orexin 1 receptor; [1]): > 10 µM

COc1c(F)cccc1C(=O)N1C2CCC1C(Nc1cnc3ccccc3n1)C2 (single isomer, unassigned) [Example 231, (±)-(3-fluoro-2-methoxyphenyl)(2-(quinoxalin-2-ylamino)-7-azabicyclo[2.2.1]heptan-7-yl)methanone]
Ki (human orexin 2 receptor; [2]): > 10 µM
Ki (rat orexin 1 receptor; [1]): > 10 µM

O=C(c1cccc(F)c1-c1ncccn1)N1C2CCC1C(Oc1ncc(C(F)(F)F)cn1)C2 (single isomer, unassigned) [Example 285, (±)-(3-fluoro-2-(pyrimidin-2-yl)phenyl)(2-(5-(trifluoromethyl)pyrimidin-2-yl)oxy)-7-azabicyclo[2.2.1]heptan-7-yl)methanone]
Ki (human orexin 2 receptor; [2]): > 10 µM
Ki (rat orexin 1 receptor; [1]): 0.72 µM

Cc1coc(-c2ccc(C)nc2C(=O)N2[C@@H]3CC[C@H]2[C@H](COc2ccccn2)C3)n1 [Example 178, (6-methyl-3-(4-methyloxazol-2-yl)pyridin-2-yl)((1S,2R,4R)-2-((pyridin-2-yloxy)methyl)-7-azabicyclo[2.2.1]heptan-7-yl)methanone]
Ki (human orexin 2 receptor; [2]): > 10 µM
Ki (rat orexin 1 receptor; [1]): 0.964 µM

O=C(c1cncc2ccccc12)N1[C@@H]2CC[C@H]1[C@H](Nc1cnc(C(F)(F)F)cn1)C2 [Example 240, isoquinolin-4-yl((1S,2R,4R)-2-((5-(trifluoromethyl)pyrazin-2-yl)amino)-7-azabicyclo[2.2.1]heptan-7-yl)methanone]
Ki (human orexin 2 receptor; [2]): 2.1 µM
Ki (rat orexin 1 receptor; [1]): 0.4 µM

Cc1ccc(C(=O)N2[C@@H]3CC[C@H]2[C@H](Nc2cnc(C(F)(F)F)cn2)C3)c(-n2nccn2)n1 [Example 247, (6-methyl-2-(2H-1,2,3-triazol-2-yl)pyridin-3-yl)((1S,2R,4R)-2-((5-(trifluoromethyl)pyrazin-2-yl)amino)-7-azabicyclo[2.2.1]heptan-7-yl)methanone]
Ki (human orexin 2 receptor; [2]): 1.13 µM
Ki (rat orexin 1 receptor; [1]): 0.42 µM

O=C(c1nc2ccccc2[nH]1)N1[C@@H]2CC[C@H]1[C@H](Nc1cnc(C(F)(F)F)cn1)C2 [Example 250, (1H-benzo[d]imidazol-2-yl)((1S,2R,4R)-2-((5-(trifluoromethyl)pyrazin-2-yl)amino)-7-azabicyclo[2.2.1]heptan-7-yl)methanone]
Ki (human orexin 2 receptor; [2]): > 10 µM
Ki (rat orexin 1 receptor; [1]): 5.65 µM

Cn1c(C(=O)N2[C@@H]3CC[C@H]2[C@H](Nc2cnc(C(F)(F)F)cn2)C3)nc2ccccc21 [Example 251, (1-methyl-1H-benzo[d]imidazol-2-yl)((1S,2R,4R)-2-((5-(trifluoromethyl)pyrazin-2-yl)amino)-7-azabicyclo[2.2.1]heptan-7-yl)methanone]
Ki (human orexin 2 receptor; [2]): 5.3 µM
Ki (rat orexin 1 receptor; [1]): 0.52 µM

Cc1nc2sccn2c1C(=O)N1[C@@H]2CC[C@H]1[C@H](Nc1cnc(C(F)(F)F)cn1)C2 [Example 259, (6-methylimidazo[2,1-b]thiazol-5-yl)((1S,2R,4R)-2-((5-(trifluoromethyl)pyrazin-2-yl)amino)-7-azabicyclo[2.2.1]heptan-7-yl)methanone]
Ki (human orexin 2 receptor; [2]): > 10 µM
Ki (rat orexin 1 receptor; [1]): > 10 µM

COc1c(F)cccc1C(=O)N1C2CCC1C(Nc1nc(C)cc(C)n1)C2 (centres unmarked) [Example 261, (2-((4,6-dimethylpyrimidin-2-yl)amino)-7-azabicyclo[2.2.1]heptan-7-yl)(3-fluoro-2-methoxyphenyl)methanone]
Ki (human orexin 2 receptor; [2]): 5 µM
Ki (rat orexin 1 receptor; [1]): > 10 µM
